According to patent US11890274B2 (JMM LICENSING LLC, priority 2015, dated 2024):
Entries after “also recorded” stand apart in the source; their conditions may differ.

What was measured:
[1] = system: Human breast adenocarcinoma cell line (MCF-7 (HTB-22)); assay: 3H-thymidine uptake assay, breast cancer cell line; assay type: cell-based; settings: for Average Cpm / Cpm 1 / Cpm 2 / Cpm 3 / dose proportionality of the effect alone, percent inhibition of 3H-uptake (FIG. 4): MCF-7; for Average Cpm / Cpm 1 / Cpm 2 / Cpm 3: 24 hours post treatment; for dose proportionality of the effect alone, percent inhibition of 3H-uptake (FIG. 4): drug alone at lower doses
Experimental: The cells were passaged onto 24-well plates at a concentration of 50,000 cells/well, in total medium volume of 1 mL (DMEM+10% FBS+0.01 mg/mL insulin+antibiotics). The cells were then allowed to attach and were incubated from 24 hours before treatment. Cells were then treated, in triplicate, with various concentrations of treatment articles. ^3H-thymidine (1 mCi/mL) was diluted to 1 μCi in 5 μL of medium (DMEM+10% FBS+0.01 mg/mL insulin+antibiotics) and then added to each well at 18-hr post treatment. […] Each well of cells was then lysed in 0.5 mL of 0.5N NaOH+0.5% SDS. Lysate was then transferred to scintillation tubes containing 1 mL if scintillation fluid for counting (3 min/sample).

[2] = cited from earlier work
[3] = system: plaques, tangles, and cognitive defects; settings: mice; given before the establishment of plaques and tangles in the brain; cited from earlier work
[4] = system: Human kidney clear cell carcinoma cell line Caki-I (HTB-46); assay: 3H-thymidine uptake assay, renal cell carcinoma; assay type: cell-based; settings: for Average Cpm / Cpm 1 / Cpm 2 / Cpm 3: Caki-I, 24 hours post treatment; for Average cpm: pilot plating
Experimental: Pilot plating experiments using Human kidney clear cell carcinoma cell line Caki-I (HTB-46). […] 0.1% DMSO, the test article solvent, in media was the control.
The cells were passaged onto 24-well plates at a concentration of 30,000 cells/well, in total medium volume of 1 mL (RPMI 1640+10% FBS+antibiotics). The cells were then allowed to attach and were incubated from 24 hours before treatment. Cells were then treated, in triplicate, with various concentrations of treatment articles.
^3H-thymidine (1 mCi/mL) was diluted to 1 μCi in 5 μL of medium (RPMI 1640+10%/FBS+antibiotics) and then added to each well at either 18- or 42-hr post treatment, for the 24- and 48-hr time points respectively.
Cells were then washed three times with 1 ML of DPBS at 24- or 48-hr post treatment to remove unincorporated ^3H-thymidine. Each well of cells was then lysed in 0.5 mL of 0.5N NaOH+0.5% SDS. Lysate was then transferred to scintillation tubes containing 1 mL if scintillation fluid for counting (3 min/sample).

## CO[C@H]1C[C@@H]2CC[C@@H](C)[C@@](O)(O2)C(=O)C(=O)N2CCCC[C@H]2C(=O)O[C@H]([C@H](C)C[C@@H]2CC[C@@H](O)[C@H](OC)C2)CC(=O)[C@H](C)/C=C(\C)[C@@H](O)[C@@H](OC)C(=O)[C@H](C)C[C@H](C)/C=C/C=C/C=C/1C [Rapamycin]
[1]; Homo sapiens, MCF7, read-out: inhibitory effect (percent inhibition of 3H-uptake), rapamycin alone at 0.5 nM
  inhibition at 0.0005 µM: 25%
[1]; Homo sapiens, MCF7, read-out: inhibitory effect (percent inhibition of 3H-uptake), rapamycin alone at 1.0 nM
  inhibition at 0.001 µM: 32%
[1]; dosage 0.1 nM
  Average Cpm: 1181 cpm
  Cpm 1: 1041 cpm
  Cpm 2: 1516 cpm
  Cpm 3: 986 cpm
[1]; dosage 0.5 nM
  Average Cpm: 2543 cpm
  Cpm 1: 2537 cpm
  Cpm 2: 2524 cpm
  Cpm 3: 2567 cpm
[1]; dosage 1 nM
  Average Cpm: 2294 cpm
  Cpm 1: 3114 cpm
  Cpm 2: 1220 cpm
  Cpm 3: 2548 cpm
[1]
  dose proportionality of the effect alone, percent inhibition of 3H-uptake (FIG. 4): not dose proportional; also recorded: not dose-proportional
[2]; considered clinically relevant for current uses
  standard therapeutic serum trough levels: 5 to 20 ng/mL
[3]
  effect on plaques, tangles, and cognitive defects: significantly reduce plaques, tangles, and cognitive defects
[4]; dosage 1 nM
  Average Cpm: 10651 cpm
  Cpm 1: 10730 cpm
  Cpm 2: 9692 cpm
  Cpm 3: 11531 cpm
[4]; dosage 5 nM
  Average Cpm: 8758 cpm
  Cpm 1: 8771 cpm
  Cpm 2: 7473 cpm
  Cpm 3: 10030 cpm
[4]; dosage 10 nM
  Average Cpm: 9111 cpm
  Cpm 1: 9861 cpm
  Cpm 2: 8987 cpm
  Cpm 3: 8486 cpm
[4]; 5 nm, 24-hr post treatment
  Average cpm: 14805 cpm
[4]; 5 nm, 48-hr post treatment
  Average cpm: 8584 cpm
[4]; 10 nm, 24-hr post treatment
  Average cpm: 12611 cpm
[4]; 10 nm, 48-hr post treatment
  Average cpm: 7463 cpm
[4]; 20 nm, 24-hr post treatment
  Average cpm: 12044 cpm
[4]; 20 nm, 48-hr post treatment
  Average cpm: 6349 cpm

## [H]/N=C(/N=C(N)N)N(C)C [Metformin, 1,1-Dimethylbiguanide]
[1]; dosage 0.05 nM
  Average Cpm: 1144 cpm
  Cpm 1: 1267 cpm
  Cpm 2: 1123 cpm
  Cpm 3: 1041 cpm
[1]; dosage 0.1 nM
  Average Cpm: 2092 cpm
  Cpm 1: 2238 cpm
  Cpm 2: 2595 cpm
  Cpm 3: 1444 cpm
[1]; dosage 0.5 nM
  Average Cpm: 1084 cpm
  Cpm 1: 1283 cpm
  Cpm 2: 1048 cpm
  Cpm 3: 921 cpm
[1]
  dose proportionality of the effect alone, percent inhibition of 3H-uptake (FIG. 4): not dose proportional; also recorded: not dose-proportional
[2]; standard dose
  standard dose therapeutic serum Cmax: 1-2 microgram/mL

## CN(Cc1cnc2nc(N)nc(N)c2n1)c1ccc(C(=O)N[C@@H](CCC(=O)O)C(=O)O)cc1 [Methotrexate, N-[4-[[(2,4-diamino-6-pteridinyl)methyl]methylamino]benzoyl]L-glutamic acid]
[4]; dosage 100 nM
  Average Cpm: 11414 cpm
  Cpm 1: 10636 cpm
  Cpm 2: 12192 cpm
  Cpm 3: 4932 cpm
[4]; 2.5 nm, 24-hr post treatment
  Average cpm: 30659 cpm
[4]; 2.5 nm, 48-hr post treatment
  Average cpm: 4811 cpm
[4]; 5 nm, 24-hr post treatment
  Average cpm: 31148 cpm
[4]; 5 nm, 48-hr post treatment
  Average cpm: 16772 cpm
[4]; 10 nm, 24-hr post treatment
  Average cpm: 27266 cpm
[4]; 10 nm, 48-hr post treatment
  Average cpm: 20251 cpm
[4]; 20 nm, 24-hr post treatment
  Average cpm: 26144 cpm
[4]; 20 nm, 48-hr post treatment
  Average cpm: 11273 cpm
